# Data taken from patent US7262212B2, “2,3-dihydro-6-nitroimidazo[2,1-b]oxazoles” (Otsuka Pharmaceutical Co., Ltd., priority 2002, dated 2007).
row,Compound,melting point
1,C[C@]1(CN2CCN(Nc3ccc(C(F)(F)F)cc3)CC2)Cn2cc([N+](=O)[O-])nc2O1,192.1 to 195.3 °C
2,CN(CC1(C)Cn2cc([N+](=O)[O-])nc2O1)C(=O)OCc1ccccc1 (stereo not drawn),150.3 to 151.6 °C
3,C[C@]1(CN2CCN(C(=O)OCC=Cc3c(F)cc(F)cc3F)CC2)Cn2cc([N+](=O)[O-])nc2O1.O=C(O)/C=C\C(=O)O,158 to 159 °C
4,CCn1c(=O)n(CC2(C)Cn3cc([N+](=O)[O-])nc3O2)c2cc(Cl)ccc21 (stereo not drawn),240.9 to 245.6 °C
5,CC1(CCN2CCN(c3nc4ccccc4o3)CC2)Cn2cc([N+](=O)[O-])nc2O1 (stereo not drawn),187.6 to 189.6 °C
6,O=C(Cc1ccc(C(F)(F)F)cc1)N1CCC2(CC1)Cn1cc([N+](=O)[O-])nc1O2,185 to 187 °C
7,O=C(NCC1Cn2cc([N+](=O)[O-])nc2O1)OCc1ccc(Cl)cc1 (stereo not drawn),182.6 to 182.9 °C
8,C[C@]1(CN2CCN(N=Cc3cc4cc(C(F)(F)F)ccc4o3)CC2)Cn2cc([N+](=O)[O-])nc2O1,190.2 to 191.8 °C
9,C[C@]1(CN2CCN(C3CCN(C(=O)OCc4ccc(OC(F)(F)F)cc4)CC3)CC2)Cn2cc([N+](=O)[O-])nc2O1,105 to 106 °C
10,CC1(CN2CCN(C(=O)CCc3ccccc3)CC2)Cn2cc([N+](=O)[O-])nc2O1 (stereo not drawn),166.8 to 169.1 °C
11,CC1(CN2CCN(C(=O)c3ccc(Cl)cc3)CC2)Cn2cc([N+](=O)[O-])nc2O1 (stereo not drawn),150 to 155.2 °C
12,Cc1ccc(CC(=O)N2CCN(CC3(C)Cn4cc([N+](=O)[O-])nc4O3)CC2)cc1 (stereo not drawn),213 to 214 °C
13,CC1(CN2CCC(Cc3ccc(Cl)cc3)CC2)Cn2cc([N+](=O)[O-])nc2O1 (stereo not drawn),109 to 110.5 °C
14,CCOC(=O)NCC1(C)Cn2cc([N+](=O)[O-])nc2O1 (stereo not drawn),182.5 to 183.4 °C
15,C[C@]1(CN2CCN(C(=O)OCC=Cc3cccc(Cl)c3)CC2)Cn2cc([N+](=O)[O-])nc2O1.O=C(O)/C=C\C(=O)O,150 to 151 °C
16,C[C@]1(CN2CCN(C(=O)CCCc3ccc(C(F)(F)F)cc3)CC2)Cn2cc([N+](=O)[O-])nc2O1,145 to 146 °C
17,COc1ccc(CN2CCN(CC3(C)Cn4cc([N+](=O)[O-])nc4O3)C2=O)c(OC)c1 (stereo not drawn),175 to 175.4 °C
18,CC1(CN2CCC(OCc3ccc(Cl)cc3)CC2)Cn2cc([N+](=O)[O-])nc2O1 (stereo not drawn),129 to 130 °C
19,CN(C)c1ccc2c(c1)n(CC1(C)Cn3cc([N+](=O)[O-])nc3O1)c(=O)n2C (stereo not drawn),264.6 to 268.3 °C (dec.)
20,C[C@]1(CN2CCC(NC(=O)Nc3ccc(C(F)(F)F)cc3)CC2)Cn2cc([N+](=O)[O-])nc2O1,136.8 to 139.9 °C
21,CC(C)(C)OC(=O)N1CCN(c2ccc(OCC3(C)Cn4cc([N+](=O)[O-])nc4O3)cc2)CC1 (stereo not drawn),212 to 214.5 °C
22,CN(CCN1CCN(c2ccc(C(F)(F)F)cc2)CC1)C[C@@]1(C)Cn2cc([N+](=O)[O-])nc2O1,148 to 150.5 °C
23,CC(C)(C)OC(=O)N1CCC(c2ccc(OCC3(C)Cn4cc([N+](=O)[O-])nc4O3)cc2)CC1 (stereo not drawn),207.8 to 209.1 °C
24,O=[N+]([O-])c1cn2c(n1)O[C@@H](CN1CCN(Cc3ccc(-c4ccccc4)cc3)CC1)C2,207 to 208 °C
25,CN(CCOc1ccc(Cl)cc1)C[C@@]1(C)Cn2cc([N+](=O)[O-])nc2O1,130.5 to 132 °C
26,C[C@]1(CN2CCN(C3CCN(CC=Cc4ccc(OC(F)(F)F)cc4)CC3)CC2)Cn2cc([N+](=O)[O-])nc2O1,157 to 158 °C

row,Compound,melting point
1,CC1(COC(=O)Nc2cccc(F)c2)Cn2cc([N+](=O)[O-])nc2O1 (stereo not drawn),168 to 169 °C
2,CC(C)(C)OC(=O)N1CCN(c2ccc(OC[C@@]3(C)Cn4cc([N+](=O)[O-])nc4O3)cc2)CC1,230 to 232 °C
3,CC1(CN2CCN(C(=O)COc3ccc(Cl)c(Cl)c3)CC2)Cn2cc([N+](=O)[O-])nc2O1 (stereo not drawn),209 to 211 °C
4,CC1(CCCN2CCN(Cc3ccc(-c4ccccc4)cc3)CC2)Cn2cc([N+](=O)[O-])nc2O1 (stereo not drawn),176 to 178 °C
5,CC1(CCCN2CCN(C(C)(C)C)C(=O)C2)Cn2cc([N+](=O)[O-])nc2O1 (stereo not drawn),147 to 149 °C (dec.)
6,CC1(CN2CCN(C(=O)c3cccc(C(F)(F)F)c3)CC2)Cn2cc([N+](=O)[O-])nc2O1 (stereo not drawn),122 to 124 °C
7,Cc1ccc(NC(=O)N2CCN(CC3(C)Cn4cc([N+](=O)[O-])nc4O3)CC2)cc1 (stereo not drawn),202 to 203 °C (dec.)
8,CC1(CCN2CCN(Cc3ccc(C(F)(F)F)cc3)CC2)Cn2cc([N+](=O)[O-])nc2O1 (stereo not drawn),148 to 149 °C
9,CN(Cc1ccc(N(C)C)cc1)C[C@@]1(C)Cn2cc([N+](=O)[O-])nc2O1,168 to 169 °C
10,O=C(Nc1ccccc1)N1CCC2(CC1)Cn1cc([N+](=O)[O-])nc1O2,229 to 232 °C (dec.)
11,O=C(OCc1ccc(C(F)(F)F)cc1)N1CCC2(CC1)Cn1cc([N+](=O)[O-])nc1O2,189 to 190 °C
12,CC1(CCN2CCN(Cc3ccc(-c4ccccc4)cc3)CC2)Cn2cc([N+](=O)[O-])nc2O1 (stereo not drawn),181 to 182 °C
13,CSc1ccc(COC(=O)N2CCN(CC3(C)Cn4cc([N+](=O)[O-])nc4O3)CC2)cc1 (stereo not drawn),118 to 120 °C
14,C[C@]1(CN2CCN(N=C3CCCCC3)CC2)Cn2cc([N+](=O)[O-])nc2O1,178.6 to 179.3 °C
15,C[C@]1(COc2ccc(C3CCN(Cc4ccc(OC(F)(F)F)cc4)CC3)cc2)Cn2cc([N+](=O)[O-])nc2O1,186 to 188 °C
16,CN(C(=O)OC(C)(C)C)C1CCN(CC2(C)Cn3cc([N+](=O)[O-])nc3O2)CC1 (stereo not drawn),198.8 to 201.1 °C
17,CNC(C1CCN(C(=O)OC(C)(C)C)CC1)[C@]1(C)Cn2cc([N+](=O)[O-])nc2O1 (stereo partly drawn),138.5 to 140.3 °C
18,C[C@]1(CN2CCC(N3CCN(c4ccc(OC(F)(F)F)cc4)CC3)CC2)Cn2cc([N+](=O)[O-])nc2O1,193 to 194 °C
19,Cn1c(=O)n(CC2(C)Cn3cc([N+](=O)[O-])nc3O2)c2cc(Cl)ccc21 (stereo not drawn),261.9 to 265.4 °C (dec.)
20,O=[N+]([O-])c1cn2c(n1)OC1(CCN(c3ccc(C(F)(F)F)cc3)CC1)C2,249.2 to 250.1 °C
21,CC1(CCCN2CCN(C(=O)OCc3ccc(C(F)(F)F)cc3)CC2)Cn2cc([N+](=O)[O-])nc2O1 (stereo not drawn),130 to 133 °C
22,C[C@]1(CN2CCC(N3CCN(C(=O)OCc4ccc(OC(F)(F)F)cc4)CC3)CC2)Cn2cc([N+](=O)[O-])nc2O1,110 to 111 °C
23,CNC(=O)OC[C@@]1(C)Cn2cc([N+](=O)[O-])nc2O1,175 to 178 °C
24,C[C@]1(COc2nc3ccccc3o2)Cn2cc([N+](=O)[O-])nc2O1,232 to 233 °C
25,CN(Cc1cccc(Cl)c1)C[C@@]1(C)Cn2cc([N+](=O)[O-])nc2O1,177.5 to 178.5 °C
26,C[C@]1(COc2ccc(OC(F)(F)F)cc2)Cn2cc([N+](=O)[O-])nc2O1,176.5 to 178 °C

row,Compound,melting point
1,CN1C(=O)CCc2cc(COC(=O)N3CCN(C[C@@]4(C)Cn5cc([N+](=O)[O-])nc5O4)CC3)ccc21,189 to 190 °C
2,CCOC(=O)c1ccc2c(c1)n(CC1(C)Cn3cc([N+](=O)[O-])nc3O1)c(=O)n2C (stereo not drawn),265.8 to 266.7 °C
3,Cn1c(=O)n(CC2(C)Cn3cc([N+](=O)[O-])nc3O2)c2cc(F)ccc21 (stereo not drawn),244.2 to 249.8 °C (dec.)
4,CC1(CN2CCN(c3ccc(C(F)(F)F)cc3)CC2)Cn2cc([N+](=O)[O-])nc2O1 (stereo not drawn),159 to 160 °C
5,C[C@]1(CN2CCC(Nc3ccc(OC(F)(F)F)cc3)CC2)Cn2cc([N+](=O)[O-])nc2O1,107.5 to 109 °C
6,CC1(CCN2CCN(C(C)(C)C)C(=O)C2)Cn2cc([N+](=O)[O-])nc2O1 (stereo not drawn),153 to 154 °C
7,C[C@]1(CN2CCN(C(=O)N3C=CC(c4ccc(Cl)cc4)=CC3)CC2)Cn2cc([N+](=O)[O-])nc2O1,156 to 159 °C
8,C[C@]1(CN2CCN(c3ccc(C(=O)O)cc3)CC2)Cn2cc([N+](=O)[O-])nc2O1,248 to 252 °C
9,CC(C)(C)OC(=O)N1CCN(c2ccc(OC[C@@]3(C)Cn4cc([N+](=O)[O-])nc4O3)cc2Cl)CC1,207 to 209.5 °C
10,C[C@]1(CN2CC=C(c3ccccc3)CC2)Cn2cc([N+](=O)[O-])nc2O1,200.1 to 201 °C
11,C[C@]1(CN2CCN(C(=O)c3ccc(C(F)(F)F)cc3)CC2)Cn2cc([N+](=O)[O-])nc2O1,183 to 184 °C
12,C[C@]1(CN2CCN(S(=O)(=O)CCCCc3ccc(Cl)cc3)CC2)Cn2cc([N+](=O)[O-])nc2O1,176 to 177 °C
13,C[C@]1(CN2CCC(Cc3ccc(OC(F)(F)F)cc3)CC2)Cn2cc([N+](=O)[O-])nc2O1,111 to 112.5 °C
14,CC1(CCCN2CCN(c3nc4ccccc4o3)CC2)Cn2cc([N+](=O)[O-])nc2O1 (stereo not drawn),172 to 174.4 °C
15,CC(C)(C)OC(=O)N1CCN(CCC2(C)Cn3cc([N+](=O)[O-])nc3O2)CC1 (stereo not drawn),190 to 191 °C (dec.)
16,CC1(CN2CCN(C(=O)Cc3ccc(C(F)(F)F)cc3)CC2)Cn2cc([N+](=O)[O-])nc2O1 (stereo not drawn),168 to 171.4 °C
17,CC(C)(C)OC(=O)N1CCN(CCCC2(C)Cn3cc([N+](=O)[O-])nc3O2)CC1 (stereo not drawn),166 to 167 °C
18,CN(C(=O)N1CCN(C[C@@]2(C)Cn3cc([N+](=O)[O-])nc3O2)CC1)c1ccc(C(F)(F)F)cc1,100.4 to 102.4 °C
19,CC(C)(C)OC(=O)N1CCC(n2c(=O)n(CC3(C)Cn4cc([N+](=O)[O-])nc4O3)c3ccccc32)CC1 (stereo not drawn),218 to 219.1 °C
20,CC(C)NC(=O)N1CCN(CC2(C)Cn3cc([N+](=O)[O-])nc3O2)CC1 (stereo not drawn),175 to 176.3 °C
21,O=[N+]([O-])c1cn2c(n1)O[C@@H](CN1CCN(c3ccc(C(F)(F)F)cc3)CC1)C2,175.8 to 176.6 °C
22,C[C@]1(COc2ccc(N3CCN(Cc4ccc(OC(F)(F)F)cc4)CC3)cc2)Cn2cc([N+](=O)[O-])nc2O1,213.5 to 217 °C
23,CC1(Cn2nc(-c3ccc(Cl)cc3)oc2=O)Cn2cc([N+](=O)[O-])nc2O1 (stereo not drawn),221 to 222 °C
24,CC(=O)N1CCC2(CC1)Cn1cc([N+](=O)[O-])nc1O2,232 to 234 °C
25,C[C@]1(CN2CCN(C(=O)N3CC=C(c4ccc(Cl)cc4)CC3)CC2)Cn2cc([N+](=O)[O-])nc2O1,161 to 162 °C
26,CN(C[C@@]1(C)Cn2cc([N+](=O)[O-])nc2O1)c1ccc(Cl)cc1,174 to 175 °C
